Test results taken from patent US11484539B2, “Compounds and their uses for alleviating menopause-associated symptoms” (Estetra SPRL, priority 2018, dated 2022).

Test system: post-menopausal women
Assay: Weekly frequency of moderate to severe VMS, dose-finding study
Type: in vivo
Conditions: for Difference with placebo, LS adjusted mean, absolute change in weekly frequency of moderate to severe VMS / Difference with placebo, LS adjusted mean, relative change in weekly frequency of moderate to severe VMS: 15 mg E4 vs placebo; for Differences with placebo (including ineffective doses 2.5 mg and 5 mg), relative change in weekly frequency of moderate to severe VMS, LS adjusted mean / Differences with placebo (including ineffective doses 2.5 mg and 5 mg), relative change in weekly frequency of moderate to severe VMS, p_value: 15.0 mg vs 0 mg; for Relative change in weekly frequency of moderate to severe VMS, LS adjusted mean: analysis with placebo grouped with 2.5 and 5 mg; for Covariate significance, covariate trt1, p_value, relative change in weekly frequency of moderate to severe VMS: 10 mg, 15 mg vs placebo grouped with 2.5 and 5 mg
From the text: To determine the Minimum Effective Dose (MED), firstly the selection criteria required that patients presented at least 7 moderate to severe VMS/day or at least 50 moderate to severe VMS/week in the week preceding randomization. Secondly, a placebo group was included in a double-blind fashion. Thirdly, the total patient number was such that statistical significance could be obtained between separate arms of the study. Fourthly, the absolute change from baseline in weekly frequency of moderate to severe VMS was taken into account. An analysis of covariance (ANCOVA) was performed based on the untransformed change in weekly frequency of moderate to severe VMS from baseline. Finally, the change in severity from baseline was evaluated. For this, the Severity Scoring System of VMS was documented by the subjects as follows: • a score of Mild (1) for a sensation of heat without sweating; • a score of Moderate (2) for a sensation of heat with sweating/the subject is able to continue activity; and • a score of Severe (3) for a sensation of heat with sweating/which causes cessation of activity.
Enrolment was approximately 18 months. Individual subject participation was up to 27 weeks: up to 6 weeks pre-screening and washout, up to 4 weeks screening and run-in period, up to 91 days (13 weeks) of E4/placebo treatment followed by 2 weeks (14 days) of progestin therapy and a Follow up visit 1 week after completion of progestin therapy in non-hysterectomised subjects only.
To define the minimum effective dose (MED) of the oral dose of E4 by evaluating changes in frequency and in severity of moderate to severe vasomotor symptoms (VMS).
This was a prospective, multicentre, randomised, placebo-controlled, double-blinded, dose-finding study.
Eligible subjects were hysterectomised and non-hysterectomised post-menopausal women aged 40 to 65 years, inclusive, presenting at least 7 moderate to severe hot flushes/day or at least 50 moderate to severe hot flushes/week.
The subjects have met all of the following inclusion criteria at the randomization visit. These criteria were assessed during the screening period: • 1. Women aged 40 to 65 years, inclusive, presenting at least 7 moderate to severe hot flushes/day or at least 50 moderate to severe hot flushes/week in the week preceding randomization. • 2. Body Mass Index (BMI) between 18.0 and 35.0 kg/m^2, inclusive. • 3. Post-menopausal status defined as levels of follicle stimulating hormone (FSH) >40 IU/L and: • amenorrhoea for at least 12 consecutive months or, • amenorrhoea for at least 6 months with estradiol (E2)<20 pg/mL or, • at least 6 weeks post-surgical bilateral oophorectomy with or without hysterectomy with a copy of the pathology report or a statement on letterhead from the subject's physician documenting both ovaries were removed is required. • 4. For non-hysterectomised women: intact uterus with bi-layer endometrial thickness […] on TVUS. • 5. Negative pregnancy test. • 6. Good physical and mental health, in the judgement of the Principal Investigator (PI), on the basis of medical, surgical and gynaecological history, physical examination, gynaecological examination, clinical laboratory, and vital signs. • 7. Subject has provided signed and dated written informed consent before admission to the study. • 8. Subject is able to understand and comply with the protocol requirements, instructions, and protocol-stated restrictions. Exclusion Criteria:
All treatments (Estetrol, hereinafter, E4, [2.5 mg, 5 mg, 10 mg, 15 mg] capsule) were administered once daily (QD) per os for at least 12 consecutive weeks until the last biological assessments (Day 91 maximum) had been performed.
In order to analyse the data recorded in this study, treatment groups have been compared using an ANCOVA (analysis of covariance) with respect to the change in weekly frequency of moderate to severe VMS from baseline to weeks 4 and 12. […]

[1] = week 4, ANCOVA with study centre
[2] = week 12, ANCOVA with study centre

Structure (SMILES): C[C@]12CC[C@@H]3c4ccc(O)cc4CC[C@H]3[C@@H]1[C@@H](O)[C@@H](O)[C@@H]2O [E4, 1,3,5 (10)-estratrien-3,15alpha,16alpha,17beta-tetrol]
- Mean change from baseline in weekly frequency of moderate to severe VMS (15 mg E4 QD per os, week 4): −41.43
- Relative change (% from baseline) in weekly frequency of moderate to severe VMS, mean (15 mg E4 QD per os, week 4): −67%
- Mean change from baseline in weekly frequency of moderate to severe VMS (15 mg E4 QD per os, week 5): −44.34
- Relative change (% from baseline) in weekly frequency of moderate to severe VMS, mean (15 mg E4 QD per os, week 5): −72%
- Mean change from baseline in weekly frequency of moderate to severe VMS (15 mg E4 QD per os, week 6): −46.58
- Relative change (% from baseline) in weekly frequency of moderate to severe VMS, mean (15 mg E4 QD per os, week 6): −76%
- Mean change from baseline in weekly frequency of moderate to severe VMS (15 mg E4 QD per os, week 7): −48.51
- Relative change (% from baseline) in weekly frequency of moderate to severe VMS, mean (15 mg E4 QD per os, week 7): −79%
- Mean change from baseline in weekly frequency of moderate to severe VMS (15 mg E4 QD per os, week 8): −48.35
- Relative change (% from baseline) in weekly frequency of moderate to severe VMS, mean (15 mg E4 QD per os, week 8): −79%
- Mean change from baseline in weekly frequency of moderate to severe VMS (15 mg E4 QD per os, week 9): −49.62
- Relative change (% from baseline) in weekly frequency of moderate to severe VMS, mean (15 mg E4 QD per os, week 9): −81%
- Mean change from baseline in weekly frequency of moderate to severe VMS (15 mg E4 QD per os, week 10): −48.88
- Relative change (% from baseline) in weekly frequency of moderate to severe VMS, mean (15 mg E4 QD per os, week 10): −80%
- Mean change from baseline in weekly frequency of moderate to severe VMS (15 mg E4 QD per os, week 11): −49.92
- Relative change (% from baseline) in weekly frequency of moderate to severe VMS, mean (15 mg E4 QD per os, week 11): −82%
- Mean change from baseline in weekly frequency of moderate to severe VMS (15 mg E4 QD per os, week 12): −50.94
- Relative change (% from baseline) in weekly frequency of moderate to severe VMS, mean (15 mg E4 QD per os, week 12): −84%
- Difference with placebo, LS adjusted mean, absolute change in weekly frequency of moderate to severe VMS [1]: −9.804
- Difference with placebo, LS adjusted mean, relative change in weekly frequency of moderate to severe VMS [1]: −0.1564
- Difference with placebo, LS adjusted mean, absolute change in weekly frequency of moderate to severe VMS (week 4, without site effect): −10.71
- Difference with placebo, LS adjusted mean, relative change in weekly frequency of moderate to severe VMS (week 4, without site effect): −0.1703
- Difference with placebo, LS adjusted mean, absolute change in weekly frequency of moderate to severe VMS [2]: −10.09
- Difference with placebo, LS adjusted mean, relative change in weekly frequency of moderate to severe VMS [2]: −0.1585
- Difference with placebo, LS adjusted mean, absolute change in weekly frequency of moderate to severe VMS (week 12, without site effect): −10.98
- Difference with placebo, LS adjusted mean, relative change in weekly frequency of moderate to severe VMS (week 12, without site effect): −0.1723
- Reduction in the frequency of moderate to severe VMS when compared to baseline (15 mg daily dose): over 80%
- Responders: patients showing a response of 50% or more (relative change from baseline in weekly frequency of moderate to severe VMS) (15 mg daily dose, week 12): 91.8%
- Responders: patients showing a response of 75% or more (weekly frequency of moderate to severe VMS) (15 mg daily dose, week 12): 77.6%
- Differences with placebo (including ineffective doses 2.5 mg and 5 mg), relative change in weekly frequency of moderate to severe VMS, LS adjusted mean (week 4): −0.1797
- Differences with placebo (including ineffective doses 2.5 mg and 5 mg), relative change in weekly frequency of moderate to severe VMS, p_value (week 4): 0.00218
- Differences with placebo (including ineffective doses 2.5 mg and 5 mg), relative change in weekly frequency of moderate to severe VMS, LS adjusted mean (week 12): −0.1826
- Differences with placebo (including ineffective doses 2.5 mg and 5 mg), relative change in weekly frequency of moderate to severe VMS, p_value (week 12): 0.00099
- Relative change (% from baseline) in weekly frequency of moderate to severe VMS, mean (15 mg, Week 12): −84%
- Relative change (% from baseline) in weekly frequency of moderate to severe VMS, mean (15 mg, week 0): 0%
- Relative change (% from baseline) in weekly frequency of moderate to severe VMS, mean (15 mg, week 1): −22%
- Relative change (% from baseline) in weekly frequency of moderate to severe VMS, mean (15 mg, week 2): −46%
- Relative change (% from baseline) in weekly frequency of moderate to severe VMS, mean (15 mg, week 3): −57%
- Relative change (% from baseline) in weekly frequency of moderate to severe VMS, mean (15 mg, week 4): −67%
- Relative change in weekly frequency of moderate to severe VMS, LS adjusted mean (15 mg, week 4): −0.6475
- Relative change (% from baseline) in weekly frequency of moderate to severe VMS, mean (15 mg, week 5): −72%
- Relative change (% from baseline) in weekly frequency of moderate to severe VMS, mean (15 mg, week 6): −76%
- Relative change (% from baseline) in weekly frequency of moderate to severe VMS, mean (15 mg, week 7): −79%
- Relative change (% from baseline) in weekly frequency of moderate to severe VMS, mean (15 mg, week 8): −79%
- Relative change (% from baseline) in weekly frequency of moderate to severe VMS, mean (15 mg, week 9): −81%
- Relative change (% from baseline) in weekly frequency of moderate to severe VMS, mean (15 mg, week 10): −80%
- Relative change (% from baseline) in weekly frequency of moderate to severe VMS, mean (15 mg, week 11): −82%
- Relative change in weekly frequency of moderate to severe VMS, LS adjusted mean (15 mg, week 12): −0.8006
- Minimal Effective Dose for the alleviation of VMS (perimenopausal and postmenopausal women): about 15 mg daily
- Efficacy on vasomotor parameters (two lowest doses tested (2.5 mg per day and 5 mg per day)): did not show efficacy
- Covariate significance, covariate trt1, p_value, relative change in weekly frequency of moderate to severe VMS (week 4): 0.0039
- Covariate significance, covariate trt1, p_value, relative change in weekly frequency of moderate to severe VMS (week 12): 0.0017
